Measured values from article PMC11078746 (Nature, 2024).
Where “and” joins values, the source holds several entries; their conditions need not be identical. Equal values may be shown once.

Key:
SW48 xenografts = experiment: SW48 cell-derived xenograft efficacy, HRO761 orally once daily; format: in vivo, mouse
Experimental: All animal studies were conducted in accordance with ethics and procedures covered by permit BS-2275 and BS-1975 issued by the Kantonales Veterinäramt Basel-Stadt and in strict adherence to guidelines of the Eidgenössisches Tierschutzgesetz and the Eidgenössische Tierschutzverordnung, Switzerland. All animal studies were approved by the internal ethics committee. All animals had access to food and water ad libitum and were identified with transponders. They were housed in a specific-pathogen-free facility in IVC racks under a 12 h–12 h light–dark cycle. To establish cell-line-derived xenograft models, 6–7-week-old female athymic nude (Crl:NU(NCr)-Foxn1^nu) or SCID-BEIGE (CB17.Cg-PrkdcscidLystbg-J/Crl) mice from Charles River were engrafted subcutaneously with 5 million tumour cells in HBSS (H6648, Sigma-Aldrich). For SNU-407, Lovo, IM95, RL95.2, Ishikawa and IGROV-1, the cells were concentrated in 50% Matrigel (354234, Corning). Patient-derived xenografts were induced and expanded by transplantation as previously described. […] For the efficacy experiment, mice were randomized into groups (n = 5–6) for a mean tumour size of 100–150 mm^3. […] Blood samples were collected on day 7 and 91. […] Tumour responses are reported with the measures of tumour volumes from the treatment start. […] Animals were randomized (n = 3) and tumour samples were collected at 0, 1, 4, 8 and 24 h on the first day and then collected 4 h after the last treatment on day 3, 8, 10, 14 (including a 24 h timepoint), 17 and 21. Tumours were excised, weighed, either frozen in liquid nitrogen and cryogenic dry pulverized with the CryoPrep system (model CP-02, Covaris) or processed to FFPE after fixation. […] On day 12, blood samples were collected for PK analysis. On the last day (3 h after the last treatment), tumours were excised, weighed, frozen in liquid nitrogen and cryogenic dry pulverized for PD analysis.

logD / logP = format: physicochemical
LOVO = experiment: CFA 10-14 day clonogenic assay; format: cell-based; settings: Homo sapiens

Compound: CCc1c(N2CCN(C(=O)c3ncnc(C)c3O)CC2)c(=O)n2nc(C3=CCOCC3)nc2n1CC(=O)Nc1ccc(C(F)(F)F)cc1Cl [HRO761]
- TVol, individual mouse (SW48 xenografts; HRO761 60mg/kg, day 14 post 1st dose, 60 mg/kg): 168.86 mm3 and 112.65 mm3 and 68.51 mm3 and 225.46 mm3 and 143.2 mm3
- Mean TVol (SW48 xenografts; HRO761 60mg/kg, day 17 post 1st dose): 92.17 mm3
- TVol, individual mouse (SW48 xenografts; HRO761 60mg/kg, day 17 post 1st dose, 60 mg/kg): 122.04 mm3 and 68.7 mm3 and 47.51 mm3 and 127.77 mm3 and 94.82 mm3
- Mean TVol (SW48 xenografts; HRO761 60mg/kg, day 21 post 1st dose): 94.01 mm3
- TVol, individual mouse (SW48 xenografts; HRO761 60mg/kg, day 21 post 1st dose, 60 mg/kg): 102.4 mm3 and 77.05 mm3 and 73.43 mm3 and 131.39 mm3 and 85.79 mm3
- Mean TVol (SW48 xenografts; HRO761 60mg/kg, day 24 post 1st dose): 58.88 mm3
- TVol, individual mouse (SW48 xenografts; HRO761 60mg/kg, day 24 post 1st dose, 60 mg/kg): 71.44 mm3 and 52.46 mm3 and 38.57 mm3 and 82.39 mm3 and 49.52 mm3
- Mean TVol (SW48 xenografts; HRO761 60mg/kg, day 28 post 1st dose): 51.50 mm3
- TVol, individual mouse (SW48 xenografts; HRO761 60mg/kg, day 28 post 1st dose, 60 mg/kg): 56.2 mm3 and 60.49 mm3 and 22.48 mm3 and 76.24 mm3 and 42.11 mm3
- Mean TVol (SW48 xenografts; HRO761 60mg/kg, day 31 post 1st dose): 37.85 mm3
- Mean TVol (SW48 xenografts; HRO761 60mg/kg, day 35 post 1st dose): 35.63 mm3
- Mean TVol (SW48 xenografts; HRO761 60mg/kg, day 38 post 1st dose): 32.12 mm3
- Mean TVol (SW48 xenografts; HRO761 60mg/kg, day 42 post 1st dose): 26.69 mm3
- Mean TVol (SW48 xenografts; HRO761 60mg/kg, day 45 post 1st dose): 28.41 mm3
- Mean TVol (SW48 xenografts; HRO761 60mg/kg, day 49 post 1st dose): 28.59 mm3
- Mean TVol (SW48 xenografts; HRO761 60mg/kg, day 52 post 1st dose): 39.66 mm3
- Mean TVol (SW48 xenografts; HRO761 60mg/kg, day 56 post 1st dose): 41.29 mm3
- Mean TVol (SW48 xenografts; HRO761 60mg/kg, day 59 post 1st dose): 58.21 mm3
- Mean TVol (SW48 xenografts; HRO761 60mg/kg, day 63 post 1st dose): 63.07 mm3
- Mean TVol (SW48 xenografts; HRO761 60mg/kg, day 66 post 1st dose): 73.43 mm3
- Mean TVol (SW48 xenografts; HRO761 60mg/kg, day 70 post 1st dose): 92.32 mm3
- Mean TVol (SW48 xenografts; HRO761 60mg/kg, day 73 post 1st dose): 100.10 mm3
- Mean TVol (SW48 xenografts; HRO761 60mg/kg, day 76 post 1st dose): 118.12 mm3
- Mean TVol (SW48 xenografts; HRO761 60mg/kg, day 79 post 1st dose): 144.54 mm3
- Mean TVol (SW48 xenografts; HRO761 60mg/kg, day 83 post 1st dose): 167.90 mm3
- Mean TVol (SW48 xenografts; HRO761 60mg/kg, day 86 post 1st dose): 197.43 mm3
- Mean TVol (SW48 xenografts; HRO761 60mg/kg, day 90 post 1st dose): 250.29 mm3
- Mean TVol (SW48 xenografts; HRO761 60mg/kg, day 92 post 1st dose): 257.93 mm3
- Mean TVol (SW48 xenografts; HRO761 120mg/kg, day 0 post 1st dose): 148.61 mm3
- Mean TVol (SW48 xenografts; HRO761 120mg/kg, day 3 post 1st dose): 165.08 mm3
- Mean TVol (SW48 xenografts; HRO761 120mg/kg, day 7 post 1st dose): 155.01 mm3
- Mean TVol (SW48 xenografts; HRO761 120mg/kg, day 10 post 1st dose): 143.90 mm3
- Mean TVol (SW48 xenografts; HRO761 120mg/kg, day 14 post 1st dose): 109.57 mm3
- TVol, individual mouse (SW48 xenografts; HRO761 120mg/kg, day 14 post 1st dose, 120 mg/kg): 89.55 mm3 and 116.21 mm3 and 96.68 mm3 and 110.56 mm3 and 134.85 mm3
- Mean TVol (SW48 xenografts; HRO761 120mg/kg, day 17 post 1st dose): 76.89 mm3
- TVol, individual mouse (SW48 xenografts; HRO761 120mg/kg, day 17 post 1st dose, 120 mg/kg): 65.99 mm3 and 76.61 mm3 and 69.65 mm3 and 76.31 mm3 and 95.9 mm3
- Mean TVol (SW48 xenografts; HRO761 120mg/kg, day 21 post 1st dose): 60.65 mm3
- TVol, individual mouse (SW48 xenografts; HRO761 120mg/kg, day 21 post 1st dose, 120 mg/kg): 36.03 mm3 and 67.66 mm3 and 49.83 mm3 and 57.7 mm3 and 92.01 mm3
- Mean TVol (SW48 xenografts; HRO761 120mg/kg, day 24 post 1st dose): 40.88 mm3
- TVol, individual mouse (SW48 xenografts; HRO761 120mg/kg, day 24 post 1st dose, 120 mg/kg): 38.27 mm3 and 45.09 mm3 and 38.11 mm3 and 31.94 mm3 and 50.97 mm3
- Mean TVol (SW48 xenografts; HRO761 120mg/kg, day 28 post 1st dose): 35.35 mm3
- TVol, individual mouse (SW48 xenografts; HRO761 120mg/kg, day 28 post 1st dose, 120 mg/kg): 32.65 mm3 and 37.62 mm3 and 34.55 mm3 and 23.01 mm3 and 48.93 mm3
- Mean TVol (SW48 xenografts; HRO761 120mg/kg, day 31 post 1st dose): 23.02 mm3
- Mean TVol (SW48 xenografts; HRO761 120mg/kg, day 35 post 1st dose): 18.60 mm3
- Mean TVol (SW48 xenografts; HRO761 120mg/kg, day 38 post 1st dose): 15.04 mm3
- Mean TVol (SW48 xenografts; HRO761 120mg/kg, day 42 post 1st dose): 15.24 mm3
- Mean TVol (SW48 xenografts; HRO761 120mg/kg, day 45 post 1st dose): 22.14 mm3
- Mean TVol (SW48 xenografts; HRO761 120mg/kg, day 49 post 1st dose): 17.54 mm3
- Mean TVol (SW48 xenografts; HRO761 120mg/kg, day 52 post 1st dose): 14.62 mm3
- Mean TVol (SW48 xenografts; HRO761 120mg/kg, day 56 post 1st dose): 23.36 mm3
- Mean TVol (SW48 xenografts; HRO761 120mg/kg, day 59 post 1st dose): 24.12 mm3
- Mean TVol (SW48 xenografts; HRO761 120mg/kg, day 63 post 1st dose): 25.71 mm3
- Mean TVol (SW48 xenografts; HRO761 120mg/kg, day 66 post 1st dose): 34.04 mm3
- Mean TVol (SW48 xenografts; HRO761 120mg/kg, day 70 post 1st dose): 39.42 mm3
- Mean TVol (SW48 xenografts; HRO761 120mg/kg, day 73 post 1st dose): 45.77 mm3
- Mean TVol (SW48 xenografts; HRO761 120mg/kg, day 76 post 1st dose): 45.68 mm3
- Mean TVol (SW48 xenografts; HRO761 120mg/kg, day 79 post 1st dose): 54.31 mm3
- Mean TVol (SW48 xenografts; HRO761 120mg/kg, day 83 post 1st dose): 66.91 mm3
- Mean TVol (SW48 xenografts; HRO761 120mg/kg, day 86 post 1st dose): 85.46 mm3
- Mean TVol (SW48 xenografts; HRO761 120mg/kg, day 90 post 1st dose): 91.43 mm3
- Mean TVol (SW48 xenografts; HRO761 120mg/kg, day 92 post 1st dose): 94.97 mm3
- Best average response (SW48 xenografts; SW48, colorectal carcinoma, 60 or 120 mg/kg): -90
- tumour regressions (SW48 xenografts; higher doses than 20 mg per kg, once daily oral, up to 60 days): 75–90%
- logP (logD / logP): 3.4
- logD (logD / logP; 1-octanol/water, pH 7.4, 1-octanol and water at pH 7.4): 1.8
- GI50 (LOVO): 0.073 µM
